This is an account of results in patent publication US11648381B2, “Thermally controlled residence devices” (Massachusetts Institute of Technology, priority 2018, dated 2023).

Each structure is given as a SMILES string.

Data set [1] can be described thus: drug stability at elevated temperature. It is filed as physicochemical. To be noted: 120° C., may be reached during manufacturing of the dosage form.
Description: Additionally, drug stability was evaluated for an elevated temperature of 120° C. which may be reached during the manufacturing of the dosage form.
Data set [2] is described as follows: solubility in simulated gastric fluid. The format is physicochemical.
Data set [3] is described as follows: drug stability in simulated gastric fluid. The format is physicochemical. To be noted: SGF pH 1.2, 37° C., 24 hour duration; HPLC-UV. Here is the method: Given that the tested residence device is designed to reside in the stomach for an extended period, the drug stability was analyzed in simulated gastric fluid (0.2% w/v sodium chloride, and 0.7% w/v hydrochloric acid, adjusted to pH-1.2; referred to as SGF). Moxifloxacin was dissolved in SGF and placed at 37° C. At various times, part of the solution was aliquoted and stored at about −20° C. until further analysis. For carbamazepine, the drug was first dissolved in methanol and then diluted in SGF (at least 100-fold). At various times, part of the solution was collected and stored at −20° C. On completion of the study, drug concentration in the various aliquots was measured using high performance liquid chromatography-ultraviolet (HPLC-UV) analysis (High Performance Liquid Chromatography).

Data set [4] can be described thus: in vitro drug release from drug-polymer matrices in simulated gastric fluid. It is filed as physicochemical. The following applies: addition of water soluble polymers such as PEG 3350 and Kolliphor P 407 to the polymer matrix; SGF with 5% (w/v) Tween 20. Here is the method: To perform the release study, drug-polymer matrices ( 1 cm in length) were incubated with 50 ml of the respective release medium in a 37° C. incubator shaker at 50 rpm. At various times, 1 ml of the release medium was collected and stored at -20° C. until further analysis. The remaining medium was discarded, and the arms were incubated with fresh medium. For measuring drug concentrations in the release medium, all specimens (beam-like arms) were thawed, centrifuged at 1500 g for 10 min, and analyzed using high-performance liquid chromatography (HPLC). Depending on the drug used, the links had excipients and elasticizers added to enhance the drug release and mechanical properties, respectively. For both moxifloxacin ([…], Inc) and carbamazepine (Ark Pharm, Inc), poly(ethylene glycol) (PEG) (molecular weight-3350 Da, Spectrum Corp.), Kolliphor® P 407 (BASF), and EUDRAGIT® E PO (Evonik) were used as excipients. For carbamazepine, CarbothaneTM TPU P[…] was used as an elasticizer. For X-ray visualization, 15% weight ratio of BaSO4 was added. Various polymeric formulations were investigated for controlled release of the drugs. The in vitro drug release was also investigated by changing drug loading and the composition of excipients, as well as application of polymeric coating (using a solution of 5.4% PCL (w/v) and 0.6% EUDRAGIT® E PO (w/v) in acetone). […]

Data set [5] in a line: in vivo prolonged drug delivery, blood concentration versus time. Also on record: species or system Yorkshire pigs. The following applies: pigs. Here is the method: To evaluate the ability of residence devices loaded with the selected carbamazepine formulation to achieve gastric retention, the above described residence device was administered to a large animal model (three 35 to 50 kg Yorkshire pigs for each drug). Following overnight fasting and sedation of the animals, an overtube (US Endoscopy), with endoscopic guidance, was placed into the stomach to facilitate direct gastric delivery of the residence device. A residence devices folded into a cylindrical shape of length 20 cm and diameter of 12 mm (see the folded configuration in FIG. 1A) was administered via the overtube into the stomach of each pig, and the overtube was then removed. […] Serial radiographs were performed immediately afterwards and every 48-72 hours to monitor the integrity and transit of the devices as well as any radiographic evidence of bowel obstruction. In addition, animals were monitored clinically at least twice a day for any evidence of morbidity, including lethargy, inappetence, decreased fecal output, abdominal distension and vomiting. […] Endoscopic evaluation of the stomach over the course of the study was performed to further explore the stomach and ensure the absence of any ulceration or injury. Blood samples were taken at the following time points, 0 min (before administration of the dosage form), 5 min, 15 min, 30 min, 2 hours, 6 hours, daily for a minimum of 5 days, and then three times for the second week from peripheral veins under sedation.
One hundred microliters of each blood sample was spiked with 200 μl of 250 ng/mL internal standard (imipramine for carbamazepine) with acetonitrile added to elicit protein precipitation. Samples were vortexed, sonicated, and centrifuged prior to being pipetted into a well plate containing 200 μl of nanopure water. Finally, the samples were injected into an Ultra Performance Liquid Chromatography tandem mass spectrometry (UPLC-MS/MS) for analysis.

`NC(=O)N1c2ccccc2C=Cc2ccccc21` [carbamazepine]: in data set [1], the “drug degradation at elevated temperature” value was “no appreciable drug degradation”. In addition, in data set [2], the “solubility in simulated gastric fluid (SGF)” value was “limited solubility”. Further, in data set [3], the “stability in SGF” value is on record as “stable”. Further, the “increase in release of carbamazepine” value in data set [4] is listed as “greater than 3 fold”. Moreover, the “carbamazepine concentration versus time profile” value in data set [5] (14 day residence time, UPLC-MS/MS) is reported as “initial spike in concentration was observed in the first day followed by relatively uniform concentrations”. In data set [5] (residence device), the “area under the curve as compared to immediate release formulations” value is given as “enhanced area under the curve” and the “maximum concentration as compared to immediate release formulations” value is recorded as “lower maximum concentration”. Also, the “duration of drug delivery after a single administration” value in data set [5] (residence device, direct gastric delivery) is reported as “up to 14 days”.
For `COc1c(N2C[C@@H]3CCCN[C@@H]3C2)c(F)cc2c(=O)c(C(=O)O)cn(C3CC3)c12` [moxifloxacin], in data set [1], the “drug degradation at elevated temperature” value was “no appreciable drug degradation”. The “stability in SGF” value in data set [3] is reported as “stable”.
